Assay results from ChEMBL document CHEMBL4028802, “DILIrank: the largest reference drug list ranked by the risk for developing drug-induced liver injury in humans” (Drug Discov Today, 2016).

What was measured:
Homo sapiens [1] = species on record: Homo sapiens; experiment: Liver toxicity in human assessed as induction of drug-induced liver injury by measuring severity class index
Homo sapiens [2] = species on record: Homo sapiens; experiment: Liver toxicity in human assessed as induction of drug-induced liver injury by measuring verified drug-induced liver injury concern status
Throughout, for DILI severity class: key of the grades not given here.

For Cc1nc(-c2ccc(OCC(C)C)c(C#N)c2)sc1C(=O)O [FEBUXOSTAT], the DILI_severity_class (Homo sapiens [1]) was 8 and the DILI_Concern (Homo sapiens [2]) was “Most-Dili-Concern”.
With CCCN(CCC)S(=O)(=O)c1ccc(C(=O)O)cc1 [PROBENECID] the DILI_severity_class (Homo sapiens [1]) was 6 and the DILI_Concern (Homo sapiens [2]) was “Ambiguous-Dili-Concern”.
With O=C(O)c1cc(-c2ccc(F)cc2F)ccc1O [DIFLUNISAL] the DILI_severity_class (Homo sapiens [1]) was 8 and the DILI_Concern (Homo sapiens [2]) was “Most-Dili-Concern”.
CS(=O)(=O)CCNCc1ccc(-c2ccc3ncnc(Nc4ccc(OCc5cccc(F)c5)c(Cl)c4)c3c2)o1 [LAPATINIB] was tested, and the DILI_severity_class (Homo sapiens [1]) was 8 and the DILI_Concern (Homo sapiens [2]) was “Most-Dili-Concern”.
In the case of Cc1nnc2n1-c1ccc(Cl)cc1C(c1ccccc1Cl)=NC2 [TRIAZOLAM], the DILI_severity_class (Homo sapiens [1]) is reported as 4 and the DILI_Concern (Homo sapiens [2]) is reported as “Ambiguous-Dili-Concern”.
With CN1CCc2cccc3c2[C@H]1Cc1ccc(O)c(O)c1-3 [APOMORPHINE] the DILI_severity_class (Homo sapiens [1]) was 0 and the DILI_Concern (Homo sapiens [2]) was “No-Dili-Concern”.
For C[C@]12CCC(=O)C=C1CC[C@@H]1[C@@H]2CC[C@@]2(C)[C@H]1CC[C@]2(C)O [METHYLTESTOSTERONE], the DILI_severity_class (Homo sapiens [1]) was 2 and the DILI_Concern (Homo sapiens [2]) was “Less-Dili-Concern”.
C#Cc1cccc(Nc2ncnc3cc(OCCOC)c(OCCOC)cc23)c1 [ERLOTINIB] was tested, and the DILI_severity_class (Homo sapiens [1]) was 8 and the DILI_Concern (Homo sapiens [2]) was “Most-Dili-Concern”.
CCCCCCCC/C=C\CCCCCCCC(=O)O.NCCO [ETHANOLAMINE OLEATE] was tested, and the DILI_severity_class (Homo sapiens [1]) was 0 and the DILI_Concern (Homo sapiens [2]) was “No-Dili-Concern”.
With CC(CCc1ccccc1)NCC(O)c1ccc(O)c(C(N)=O)c1 (stereo not given) [LABETALOL] the DILI_severity_class (Homo sapiens [1]) was 8 and the DILI_Concern (Homo sapiens [2]) was “Most-Dili-Concern”.
For O=C1CN2Cc3c(ccc(Cl)c3Cl)N=C2N1 [ANAGRELIDE], the DILI_severity_class (Homo sapiens [1]) was 3 and the DILI_Concern (Homo sapiens [2]) was “Ambiguous-Dili-Concern”.
With CC(C(=O)O)c1cccc(Oc2ccccc2)c1 (stereo not given) [FENOPROFEN] the DILI_severity_class (Homo sapiens [1]) was 8 and the DILI_Concern (Homo sapiens [2]) was “Most-Dili-Concern”.
For Sc1ncnc2nc[nH]c12 [MERCAPTOPURINE ANHYDROUS], the DILI_severity_class (Homo sapiens [1]) was 8 and the DILI_Concern (Homo sapiens [2]) was “Most-Dili-Concern”.
CCC[C@@]1(CCc2ccccc2)CC(O)=C([C@H](CC)c2cccc(NS(=O)(=O)c3ccc(C(F)(F)F)cn3)c2)C(=O)O1 was tested, and the DILI_severity_class (Homo sapiens [1]) was 8 and the DILI_Concern (Homo sapiens [2]) was “Most-Dili-Concern”.
For Nc1ccn([C@@H]2O[C@H](CO)[C@@H](O)C2(F)F)c(=O)n1 [GEMCITABINE], the DILI_severity_class (Homo sapiens [1]) was 8 and the DILI_Concern (Homo sapiens [2]) was “Most-Dili-Concern”.
For Oc1ccc(C2CNCCc3c2cc(O)c(O)c3Cl)cc1 (stereo not given) [FENOLDOPAM], the DILI_severity_class (Homo sapiens [1]) was 0 and the DILI_Concern (Homo sapiens [2]) was “No-Dili-Concern”.
With CC(C)(Oc1ccc(C(=O)c2ccc(Cl)cc2)cc1)C(=O)O [FENOFIBRIC ACID] the DILI_severity_class (Homo sapiens [1]) was 2 and the DILI_Concern (Homo sapiens [2]) was “Ambiguous-Dili-Concern”.
C=CC1=C(C(=O)O)N2C(=O)[C@@H](NC(=O)/C(=N\O)c3csc(N)n3)[C@H]2SC1 was tested, and the DILI_severity_class (Homo sapiens [1]) was 7 and the DILI_Concern (Homo sapiens [2]) was “Less-Dili-Concern”.
CN1CC[C@]23c4c5ccc(O)c4O[C@H]2C(=O)CC[C@@]3(O)[C@H]1C5 [OXYMORPHONE] was tested, and the DILI_severity_class (Homo sapiens [1]) was 0 and the DILI_Concern (Homo sapiens [2]) was “No-Dili-Concern”.
O=C1Nc2ccc(Cl)cc2[C@@](C#CC2CC2)(C(F)(F)F)O1 [EFAVIRENZ] was tested, and the DILI_severity_class (Homo sapiens [1]) was 7 and the DILI_Concern (Homo sapiens [2]) was “Most-Dili-Concern”.
With Nc1ccc(S(=O)(=O)Nc2nccs2)cc1 [SULFATHIAZOLE] the DILI_severity_class (Homo sapiens [1]) was 8 and the DILI_Concern (Homo sapiens [2]) was “Most-Dili-Concern”.
With CCOC(=O)C(C)(C)Oc1ccc(Cl)cc1 [CLOFIBRATE] the DILI_severity_class (Homo sapiens [1]) was 3 and the DILI_Concern (Homo sapiens [2]) was “Less-Dili-Concern”.
In the case of Nc1nnc(-c2cccc(Cl)c2Cl)c(N)n1 [LAMOTRIGINE], the DILI_severity_class (Homo sapiens [1]) is reported as 7 and the DILI_Concern (Homo sapiens [2]) is reported as “Most-Dili-Concern”.
In the case of CN(C)c1ccc(O)c2c1C[C@H]1C[C@H]3[C@H](N(C)C)C(O)=C(C(N)=O)C(=O)[C@@]3(O)C(O)=C1C2=O [MINOCYCLINE], the DILI_severity_class (Homo sapiens [1]) is reported as 8 and the DILI_Concern (Homo sapiens [2]) is reported as “Most-Dili-Concern”.
O=C1Nc2ccc(Cl)cc2C(c2ccccc2)=NC1O (stereo not given) [OXAZEPAM] was tested, and the DILI_severity_class (Homo sapiens [1]) was 5 and the DILI_Concern (Homo sapiens [2]) was “Ambiguous-Dili-Concern”.
